The values below are quoted from earlier work in patent US11052155B2, “Conjugates of CC-1065 analogs and bifunctional linkers” (priority 2010, dated 2021).

For the data set the following is noted: in vivo.

Regarding `COc1c(O)c2c(c3cc(C(=O)N4CCc5c4c(O)c(OC)c4[nH]c(C(=O)N6CC7CC78C6=CC(=O)c6[nH]cc(C)c68)cc54)[nH]c13)CCN2C(N)=O` (stereo not shown) [CC-1065], the hepatotoxicity result was “serious delayed hepatotoxicity”.
